Measured values taken from patent US10190094B2, “Methods and compositions related to induced sensory neurons” (priority 2013, dated 2019).
Where “and” joins values, the source holds several entries; their conditions need not be identical. Equal values may be shown once. Read-outs that look alike come from different tables or passages of the source.

Experiments:
MEFs = assay: Reprogramming of MEFs in presence of EdU or mitotic inhibitor AraC; type: cell-based, mouse
Experimental: Immunohistochemistry, and RT-PCR: For immunofluorescence staining, cells were fixed 4% paraformaldehyde for 10 minutes at room temperature. Cells were then washed three times with PBS and subsequently permeabilized with 0.1% Triton X-100 (Sigma) in PBS. After washing and permeabilization cells were blocked in 5% horse serum for thirty minutes at room temperature. Primary staining was performed overnight at 4° C. in block. Secondary antibodies were diluted in blocking solution and stained room temperature for one hour. EdU staining was performed using Click-it EdU kit (C10337;Invitrogen) following manufacturer's instructions. […]
We examined whether the observed reprogramming of fibroblasts to the somatic sensory lineage requires cell division or specialized embryonic precursors. […] Second, to further block proliferation we applied the mitotic inhibitor arabinofuranosyl cytidine (AraC) to cultures continuously from three days post induction and quantified the number of Map2-positive cells on day 14.

[1] = tested on: Human iSNs (TRPA1, TRPM8, TRPV1); assay: Calcium imaging of human iSNs exposed to TRP channel ligands; type: cell-based
[2] = tested on: BN1 and BN2 iSNs (TrpA1, TrpM8, TrpV1); assay: Calcium imaging of mouse iSNs exposed to Trp channel ligands (Map2::GCAMP5.G); type: cell-based
[3] = human BN1 iSNs, KCl responders, 10 μM capsaicin, 100 μM menthol, 100 μM mustard oil
[4] = human BN2 iSNs, KCl responders, 10 μM capsaicin, 100 μM menthol, 100 μM mustard oil
[5] = mouse BN1 iSNs, KCl responders, 10 μM capsaicin, 100 μM menthol, 100 μM mustard oil
[6] = mouse BN2 iSNs, KCl responders, 10 μM capsaicin, 100 μM menthol, 100 μM mustard oil

| Structure (SMILES) | inhibition of proliferative cells (MEFs; 4 μM) | effect of mitotic inhibition on number of neurons (Map2-positive cells) produced during reprogramming (MEFs; applied continuously from three days post induction, counted day 14, BN1 or BN2) | iSNs exhibiting calcium transients in response to ligand [1, 3] | iSNs exhibiting calcium transients in response to ligand [1, 4] | iSNs exhibiting calcium transients in response to ligand [2, 5] | iSNs exhibiting calcium transients in response to ligand [2, 6] | iSNs exhibiting calcium transients in response to ligand [1] | iSNs exhibiting calcium transients in response to ligand [2] |
| --- | --- | --- | --- | --- | --- | --- | --- | --- |
| Nc1ccn([C@@H]2O[C@H](CO)[C@@H](O)[C@@H]2O)c(=O)n1 [AraC, arabinofuranosyl cytidine] | > 90% | did not significantly alter the number of neurons |  |  |  |  |  |  |
| COc1cc(CNC(=O)CCCC/C=C/C(C)C)ccc1O [capsaicin] |  |  | 4.4%±1.7 | 5.9%±3.3 | 19.7%±3.0 | 21.2%±3.5 |  |  |
| CC1CCC(C(C)C)C(O)C1 (stereo not drawn) [menthol] |  |  | 4.4%±1.4 | 6.0%±2.3 | 15.4%±2.6 | 17.4%±4.3 |  |  |
| C=CCN=C=S [mustard oil, allyl isothiocyanate] |  |  |  |  |  |  | 12.8%±4.5 and 8.8%±3.7 | 12.9%±3.8 and 12.5%±3.4 |
